Source: patent publication US20220117964A1, “COMBINATION OF FAK INHIBITOR AND BTK INHIBITOR FOR TREATING A DISEASE” (ASCENTAGE PHARMA (SUZHU) CO., LTD., priority 2019, published 2022)
Several values for one entry are separate records, joined by “and”; a condition that tells them apart may be missing. Identical values can stand only once. Like-named read-outs stand apart in the source and are kept apart here.

Tests used:
KYSE-150 = assay: CCK-8 cell viability assay; assay type: cell-based; conditions: Homo sapiens; KYSE-150 cells, CCK-8, 72 hours; read-out: IC50, proliferation inhibition
Procedure: (§1) Cell viability was measured using Cell Counting Kit-8 (Dojindo, Japan) according to the manufacturer's instructions. In short, cells were inoculated in a 96-well plate at 3000 to 4000 cells/well in the presence of a single drug or a combination of drugs for 72 hours. After 72 hours, CCK-8 reagent (10 μL/well) was added and incubated at 37° C. for 1-2 hours, and absorbance readings at 450 nm were obtained. The IC50 values were calculated by using GraphPad Prism version 6.0.0 (GraphPad Software, San Diego, Calif. USA) for Windows.
(§2) (1) The experimental method was described in item (1) and item (5) of Example 2. The expression difference of FAK gene between normal esophageal tissue and esophageal cancer tissue was determined by analyzing the TCGA database source information in the GEPIA database (http://gepia.cancer-pku.cn/), and the correlation between the FAK gene and the EGFR gene in esophageal cancer was determined by analyzing the TCGA database source information using the Pearson test. The basic protein expression levels for the following proteins in 6 esophageal cancer cell lines (TE-10, TE-1, YES-2, KYSE-520, KYSE-510, KYSE-150) were detected by Western blot method: EGFR, phosphorylated-EGFR (p-EGFR, Tyr1068), FAK, phosphorylated-FAK (p-FAK, Tyr397), BTK, C-Myc, phosphorylated-C-Myc (p-C-Myc), in which f3-tubulin was used as internal reference protein.
(§3) (1) The experimental methods were as described in the items (1), (3) and (4) of Example 2.

KYSE-520 = assay: CCK-8 cell viability assay; assay type: cell-based; conditions: Homo sapiens; KYSE-520 cells, CCK-8, 72 hours; read-out: IC50, proliferation inhibition
Procedure: as §1, §2, §3

YES-2 = assay: CCK-8 cell viability assay; assay type: cell-based; conditions: read-out: IC50, proliferation inhibition
Procedure: as §1, §2, §3

KYSE-150 cells = assay: Cell migration (Transwell) assay; assay type: cell-based, human; conditions: 1 μM Compound 5, 1 μM Ibrutinib or both
Procedure: The culture medium was sucked into a chamber of Transwell (PC membrane, pore size 8.0 μm, Corning, N.Y., USA), and then the chamber was placed in a 24-well plate containing 750 μl of 50% FBS medium. After incubation for 24 to 30 hours, the chamber was taken out, the medium in the chamber was sucked out, and the redundant cells in the chamber were wiped off with a cotton swab. The chamber was placed in paraformaldehyde to perform fixation for 15 minutes, and staining was performed with 0.5% crystal violet at room temperature for 15 minutes. Cell migration activity was described as a relative number of the cells that exited the chamber.
(1) The experimental method was as described in the items (1), (2), (5) of Example 2. […] The changes in signaling pathway of related proteins were determined by Western blotting assay.

[1] = test system: human KYSE-150 mouse xenograft tumor model; assay: Human KYSE-150 mouse xenograft tumor model, antitumor effect; assay type: in vivo, BALB/c Nude mice; conditions: for RTV on day 12 after administration (mean ± standard error): day 12 (last dose); for RTV on day 12 after administration (mean ± standard error) / T/C on day 12 after administration (%) / RTV on day 18 after administration (mean ± standard error) / T/C on day 18 after administration (%): Compound 5 100 mg/kg p.o., Ibrutinib 25 mg/kg i.p.; for RTV on day 12 after administration (mean ± standard error) / RTV on day 18 after administration (mean ± standard error): qd × 5d, withdrawal 2 days/week × 2 weeks; for Tumor state on day 12 after administration: CR: day 12, animals with complete regression of tumor / group; for Tumor state on day 12 after administration: PR: day 12, animals with partial regression of tumor / group; for Tumor state on day 12 after administration: SD: day 12, animals with stable disease / group; for RTV on day 18 after administration (mean ± standard error): day 18 (after drug withdrawal); for Tumor state on day 18 after administration: CR: day 18, animals with complete regression of tumor / group; for Tumor state on day 18 after administration: PR: day 18, animals with partial regression of tumor / group; for Tumor state on day 18 after administration: SD: day 18, animals with stable disease / group
Procedure: The animals used were BALB/c Nude mice, 4-6 weeks old, female. Animal body weight was 14-16±20% g. The experimental animals were provided by Beijing Weitonglihua Experimental Animal Technology Co., Ltd. (Vital River Laboratories, VRL, license number: SOCK (J) 2016-0011). Animal certificate number: 11400700325794.
Compound 5 was intragastrically administered at a dose of 100 mg/kg and a volume of 200 μl. The preparation for the administration was prepared every 3 days and stored at 4° C. when it has not been in use. The formulation and use of the preparation were carried out under sterile conditions. […] The preparation for the administration was prepared every 3 days and stored at 4° C. The formulation and use of the preparation were carried out under sterile conditions.
Forty immunodeficiency mice were subcutaneously injected with 5×10^6 KYSE-150 cells suspended in 100 μl PBS in the right armpit to establish a xenograft tumor model. […] When the tumor reached an appropriate size (50 to 100 mm^3), the animals were randomly assigned according to the tumor volume, in which the difference in tumor volume among groups should be less than 10% of the mean value, and at last 7 mice were assigned to each group, and the administration was star ted on the day of group assignment (i.e., d1).
A subcutaneous immunodeficient-mice xenograft tumor model of human tumor was established by cell inoculation method: tumor cells in logarithmic growth phase were collected, counted and resuspended in 1×PBS, and the concentration of cell suspension was adjusted to 5×10^7/mL. 1 mL syringe ([…]) was used to inoculate the tumor cells subcutaneously on the right back of immunodeficient mice, 5×10^6/0.1 mL/mouse. All animal experiments were performed strictly in accordance with the guidelines for Institutional Animal Care and Use Committee (IACUC) of Sun Yat-sen University and Suzhou Yasheng Pharmaceutical Co., Ltd. The calculation of related parameters referred to China NMPA “Technical Guidelines for Nonclinical Research of Cytotoxic Antitumor Drugs”.
Animal body weight and tumor size were measured twice per week during the experiment. The growth of tumor was periodically observed, and when the tumor grew to an average volume of 50 to 100 mm^3, the mice were randomly divided into groups for administration according to tumor size and body weight. The status and deaths of the animals were observed every day. The routine monitoring included the effects of tumor growth and drug administration on the normal behaviors of animals, specially included the activity of experimental animals, food and water consumption, weight gain or loss, eyes, hair, and other abnormal conditions. The deaths and clinical symptoms observed during the experiment were recorded in the raw data. The entire operation for administration, measurement of mouse weight and tumor volume was performed in a clean bench. According to the requirements of the experimental protocol, when the long diameter of tumor was greater than 20 mm, the experimental end point was reached and the mice were euthanized. Tumor tissues were collected, weighed and photographed for recording.
Tumor volume (TV) was calculated as: TV=a×b^2/2, wherein a and b represented the measured length and width of tumor, respectively. The relative tumor volume (RTV) was calculated as: RTV=Vt/V1, wherein V1 represented the tumor volume at the time of group assignment and administration, and Vt represented the tumor volume on a certain day after administration.

| Compound | IC50 (KYSE-150) [nM] | IC50 (KYSE-520) [nM] | IC50 (YES-2; YES-2 cells, CCK-8, 72 hours) [nM] | cell migration (KYSE-150 cells) | RTV on day 12 after administration (mean ± standard error) [1] | Tumor state on day 12 after administration: CR [1] | Tumor state on day 12 after administration: PR [1] | Tumor state on day 12 after administration: SD [1] | T/C on day 12 after administration (%) [1] [%] | RTV on day 18 after administration (mean ± standard error) [1] | Tumor state on day 18 after administration: CR [1] | Tumor state on day 18 after administration: PR [1] | Tumor state on day 18 after administration: SD [1] | T/C on day 18 after administration (%) [1] [%] | IC50 (YES-2; 72 h) [nM] | Tumor state on day 18 after administration: remission rate, % ([1]; day 18, remission including CR, PR and SD) |
| --- | --- | --- | --- | --- | --- | --- | --- | --- | --- | --- | --- | --- | --- | --- | --- | --- |
| Cc1cc(Nc2ncc(Cl)c(Nc3ccccc3S(=O)(=O)C(C)C)n2)c(OC(C)C)cc1C1=CCN(C2CCOCC2)CC1 [Compound 5, 5-chloro-N^2-(2-isopropoxy-5-methyl-4-(1-(tetrahydro-2H-pyran-4-yl)-1,2,3,6-tetrahydropyridin-4-yl)phenyl)-N^4-(2-(isopropylsulfonyl)phenyl)pyrimidine-2,4-diamine] | 2310 | 825 | 956 | cell migration in certain extent | 1.4 | 0/7 CR | 1/7 and 1/7 PR | 1/7 and 1/7 SD | 49.8 | 3.0 | 0/7 CR | 1/7 and 1/7 PR | 0/7 SD | 55.8 |  |  |
| C=CC(=O)N1CCC[C@@H](n2nc(-c3ccc(Oc4ccccc4)cc3)c3c(N)ncnc32)C1 [Ibrutinib] | 1220 | 245 |  | cell migration in certain extent | 1.4 | 0/7 CR | 1/7 and 1/7 PR | 1/7 and 1/7 SD | 48.6 | 3.8 | 0/7 CR | no animal and 0/7 PR | no animal and 0/7 SD | 70.2 | 177 | (0%) |
